Columns and labels:
Experiment in all cases: relative viability (nuclei count vs DMSO), 5 days (fraction); higher = more cells survive
NCI-H2170 = system: NCI-H2170
Procedure, shortened: (§1)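 Relative viability equals treated-well nuclei counts divided by vehicle-well nuclei counts. Counts came from 4× images of lung cancer cell lines grown in 1536-well plates for 5 days after pin-tool dosing on the day after seeding. Dosing used one drug alone or a fixed anchor-drug dose plus five library-drug doses (not always all listed) in √10 steps, and values are medians of duplicate plates.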

NCI-H2347 = system: NCI-H2347
Procedure, shortened: as §1

NCI-H2405 = system: NCI-H2405
Procedure, shortened: as §1

NCI-H3122 = system: NCI-H3122
Procedure, shortened: as §1

NCI-H322M = system: NCI-H322M
Procedure, shortened: as §1

NCI-H441 = system: NCI-H441
Procedure, shortened: as §1

NCI-H520 = system: NCI-H520
Procedure, shortened: as §1

NCI-H647 = system: NCI-H647
Procedure, shortened: as §1

PC-14 = system: PC-14
Procedure, shortened: as §1

SW 900 = system: SW 900
Procedure, shortened: as §1

UMC-11 = system: UMC-11
Procedure, shortened: as §1

`Nc1ccn([C@@H]2O[C@H](CO)[C@@H](O)[C@@H]2O)c(=O)n1` [Cytarabine] + O=C(CCCCCCC(=O)Nc1ccccc1)NO [Vorinostat] (partner 1 µM) showed a relative viability (NCI-H2170; first compound 0.1581 µM) of 0.4, a relative viability (NCI-H2170; first compound 0.5 µM) of 0.314 and a relative viability (NCI-H2347; first compound 0.005 µM) of 0.531. It also gave a relative viability (NCI-H2347; first compound 0.01581 µM) of 0.586, a relative viability (NCI-H2347; first compound 0.05 µM) of 0.555 and a relative viability (NCI-H2347; first compound 0.1581 µM) of 0.498. For the same compound, the relative viability (NCI-H2347; first compound 0.5 µM) was 0.409, the relative viability (NCI-H2405; first compound 0.005 µM) was 1.02 and the relative viability (NCI-H2405; first compound 0.01581 µM) was 0.748. For the same compound, the relative viability (NCI-H2405; first compound 0.05 µM) was 0.624, the relative viability (NCI-H2405; first compound 0.1581 µM) was 0.43 and the relative viability (NCI-H2405; first compound 0.5 µM) was 0.374. The relative viability (NCI-H3122; first compound 0.005 µM) was 0.938, the relative viability (NCI-H3122; first compound 0.01581 µM) was 0.914 and the relative viability (NCI-H3122; first compound 0.05 µM) was 0.894. The relative viability (NCI-H3122; first compound 0.1581 µM) was 0.695, the relative viability (NCI-H3122; first compound 0.5 µM) was 0.293 and the relative viability (NCI-H322M; first compound 0.005 µM) was 0.804. It also gave a relative viability (NCI-H322M; first compound 0.01581 µM) of 0.785, a relative viability (NCI-H322M; first compound 0.05 µM) of 0.641 and a relative viability (NCI-H322M; first compound 0.1581 µM) of 0.589. It also gave a relative viability (NCI-H322M; first compound 0.5 µM) of 0.426, a relative viability (NCI-H441; first compound 0.005 µM) of 0.527 and a relative viability (NCI-H441; first compound 0.01581 µM) of 0.882. It also gave a relative viability (NCI-H441; first compound 0.05 µM) of 0.852, a relative viability (NCI-H441; first compound 0.1581 µM) of 0.398 and a relative viability (NCI-H441; first compound 0.5 µM) of 0.229. It also gave a relative viability (NCI-H520; first compound 0.005 µM) of 0.636, a relative viability (NCI-H520; first compound 0.01581 µM) of 0.668 and a relative viability (NCI-H520; first compound 0.05 µM) of 0.776. It also gave a relative viability (NCI-H520; first compound 0.1581 µM) of 0.555, a relative viability (NCI-H520; first compound 0.5 µM) of 0.502 and a relative viability (NCI-H647; first compound 0.005 µM) of 0.284. It also gave a relative viability (NCI-H647; first compound 0.01581 µM) of 0.294, a relative viability (NCI-H647; first compound 0.05 µM) of 0.149 and a relative viability (NCI-H647; first compound 0.1581 µM) of 0.0878. It also gave a relative viability (NCI-H647; first compound 0.5 µM) of 0.0778, a relative viability (PC-14; first compound 0.005 µM) of 0.519 and a relative viability (PC-14; first compound 0.01581 µM) of 0.601. The relative viability (PC-14; first compound 0.05 µM) was 0.617, the relative viability (PC-14; first compound 0.1581 µM) was 0.154 and the relative viability (PC-14; first compound 0.5 µM) was 0.082. It also gave a relative viability (SW 900; first compound 0.005 µM) of 0.399, a relative viability (SW 900; first compound 0.01581 µM) of 0.491 and a relative viability (SW 900; first compound 0.05 µM) of 0.376. The relative viability (SW 900; first compound 0.1581 µM) was 0.182, the relative viability (SW 900; first compound 0.5 µM) was 0.166 and the relative viability (UMC-11; first compound 0.005 µM) was 0.285. It also gave a relative viability (UMC-11; first compound 0.01581 µM) of 0.308, a relative viability (UMC-11; first compound 0.05 µM) of 0.258 and a relative viability (UMC-11; first compound 0.1581 µM) of 0.19. It also gave a relative viability (UMC-11; first compound 0.5 µM) of 0.183.
